Primed or numbered codes have the meaning given here. Where no end group is shown, it is not given here. [ ]: non-standard residue; d: D form. The star is where a group is joined. ol = C-terminal alcohol (reduced C-terminus); Desaminotyrosyl = O=C(CCc1ccc(O)cc1)*; Hydrocinnamoyl = O=C(CCc1ccccc1)*; NMeF = CN[C@@H](Cc1ccccc1)C(=O)O; ol″ = C-terminal alcohol; Propionyl = CCC(=O)*; GABA = NCCCC(=O)O; βAla = NCCC(=O)O; Sar = CNCC(=O)O
Columns and labels:
[1] = system: osteoblastic MC3T3 E1 cells; experiment: Proliferation assay, osteoblastic MC3T3 E1 cells; assay type: cell-based; details: for Relative in vitro potency (95% confidence limit) MC3T3 E1 cells: analog concentration 10^−13M, mean cell number relative to positive control OGP(1-14) = 1.00
Excerpt: (§1) Some of the analogs were subjected to a dose response analysis.

[2] = system: fibroblastic NIH 3T3 cells; experiment: Proliferation assay, fibroblastic NIH 3T3 cells; assay type: cell-based; details: for Relative in vitro potency (95% confidence limit) NIH 3T3 cells: analog concentration 10^−11M, mean cell number relative to positive control OGP(1-14) = 1.00
Excerpt: as §1

Substance: desamino[Tyr^10,D-Ala^14]OGP(10-14)
- Relative in vitro potency (95% confidence limit) MC3T3 E1 cells [1]: 0.41
- Relative in vitro potency (95% confidence limit) NIH 3T3 cells [2]: 0.32

Substance: desamino Tyr-Gly-Phe-NH-CH2-CH2-CH2-CH2-C(O)-OH
- Relative in vitro potency (95% confidence limit) MC3T3 E1 cells [1]: 0.78
- Relative in vitro potency (95% confidence limit) NIH 3T3 cells [2]: 0.188

Substance: desamino[Tyr^10,Ala^14]OGP(10-14) ([Desaminotyrosyl]GFGA)
- Relative in vitro potency (95% confidence limit) MC3T3 E1 cells [1]: 0.19
- Relative in vitro potency (95% confidence limit) NIH 3T3 cells [2]: 0.16

Substance: desamino Tyr-CH2-Gly-Phe-Gly-Gly ([Desaminotyrosyl]GFGG; also: reduced amide bond Tyr-CH2-Gly) [desamino[Tyr^10ψ(CH2NH)Gly^11]OGP(10-14)]
- Relative in vitro potency (95% confidence limit) MC3T3 E1 cells [1]: 0.81
- Relative in vitro potency (95% confidence limit) NIH 3T3 cells [2]: 0.79

Substance: [Ala^13]OGP(11-14) (GFAG)
- Relative in vitro potency (95% confidence limit) MC3T3 E1 cells [1]: 0.22
- Relative in vitro potency (95% confidence limit) NIH 3T3 cells [2]: 0.10

Substance: OGP(11-14)-ol (GFGG-{ol″})
- Relative in vitro potency (95% confidence limit) MC3T3 E1 cells [1]: 0.24
- Relative in vitro potency (95% confidence limit) NIH 3T3 cells [2]: 0.38

Substance: c(β-Ala-Tyr-Gly-Phe-Gly-Gly) (cyclo([βAla]YGFGG); SMILES O=C1CNC(=O)CNC(=O)[C@H](Cc2ccccc2)NC(=O)CNC(=O)[C@H](Cc2ccc(O)cc2)NC(=O)CCN1)
- Relative in vitro potency (95% confidence limit) MC3T3 E1 cells [1]: 0.36
- Relative in vitro potency (95% confidence limit) NIH 3T3 cells [2]: 0.37

Substance: [D-Ala^10]OGP(10-14)
- Relative in vitro potency (95% confidence limit) MC3T3 E1 cells [1]: 0.12
- Relative in vitro potency (95% confidence limit) NIH 3T3 cells [2]: 0.16

Substance: desamino[Tyr^10,D-Ala^12]OGP(10-14)
- Relative in vitro potency (95% confidence limit) MC3T3 E1 cells [1]: 0.30
- Relative in vitro potency (95% confidence limit) NIH 3T3 cells [2]: 0.02

Substance: [Ala^14]OGP(11-14) (GFGA)
- Relative in vitro potency (95% confidence limit) MC3T3 E1 cells [1]: 0.17
- Relative in vitro potency (95% confidence limit) NIH 3T3 cells [2]: 0.10

Substance: desamino[Tyr^10,Sar^11]OGP(10-14) [desamino[Tyr^10,Sar^11]OGP(10-14) (SEQ ID NO: 31)] ([Desaminotyrosyl][Sar]FGG)
- Relative in vitro potency (95% confidence limit) MC3T3 E1 cells [1]: 0.31
- Relative in vitro potency (95% confidence limit) NIH 3T3 cells [2]: 0.39

Substance: desamino Tyr-Gly-N(CH3)-CH(CH2C6H5)-C(O)-Gly-Gly ([Desaminotyrosyl]G[NMeF]GG) [desamino[Tyr^10,N(Me)-Phe^12]OGP(10-14)]
- Relative in vitro potency (95% confidence limit) MC3T3 E1 cells [1]: 0.52
- Relative in vitro potency (95% confidence limit) NIH 3T3 cells [2]: 0.67

Substance: desamino[Tyr^10,Ala^12]OGP(10-14) [desamino[Tyr^10,Ala^12]OGP(10-14) (SEQ ID NO: 20)]
- Relative in vitro potency (95% confidence limit) MC3T3 E1 cells [1]: 0.41
- Relative in vitro potency (95% confidence limit) NIH 3T3 cells [2]: 0.43

Substance: desamino[Tyr^10,Ala^12]OGP(10-14) [desamino[Tyr^10,Ala^12]OGP(10-14) (SEQ ID NO: 21)] ([Desaminotyrosyl]GAGG)
- Relative in vitro potency (95% confidence limit) MC3T3 E1 cells [1]: 0.21
- Relative in vitro potency (95% confidence limit) NIH 3T3 cells [2]: 0.16

Substance: desamino[Tyr^10]OGP(10-14)—NH2 ([Desaminotyrosyl]GFGG-NH2; SMILES NC(=O)CNC(=O)CNC(=O)[C@H](Cc1ccccc1)NC(=O)CNC(=O)CCc1ccc(O)cc1)
- Relative in vitro potency (95% confidence limit) MC3T3 E1 cells [1]: 0.20
- Relative in vitro potency (95% confidence limit) NIH 3T3 cells [2]: 0.16

Substance: desamino[Tyr^10]OGP(10-13)—NHEt ([Desaminotyrosyl]GFG-NHEt; SMILES CCNC(=O)CNC(=O)[C@H](Cc1ccccc1)NC(=O)CNC(=O)CCc1ccc(O)cc1)
- Relative in vitro potency (95% confidence limit) MC3T3 E1 cells [1]: 0.19
- Relative in vitro potency (95% confidence limit) NIH 3T3 cells [2]: 0.20

Substance: desamino[Tyr^10]OGP(10-14)—N(Me)2 ([Desaminotyrosyl]GFGG-{N(Me)2})
- Relative in vitro potency (95% confidence limit) MC3T3 E1 cells [1]: 0.12
- Relative in vitro potency (95% confidence limit) NIH 3T3 cells [2]: 0.16

Substance: desamino[Tyr^10,D-Ala^13]OGP(10-14)
- Relative in vitro potency (95% confidence limit) MC3T3 E1 cells [1]: 0.28
- Relative in vitro potency (95% confidence limit) NIH 3T3 cells [2]: 0.23

Substance: desamino[Tyr^10]OGP(10-14)—NHMe ([Desaminotyrosyl]GFGG-NHMe; SMILES CNC(=O)CNC(=O)CNC(=O)[C@H](Cc1ccccc1)NC(=O)CNC(=O)CCc1ccc(O)cc1)
- Relative in vitro potency (95% confidence limit) MC3T3 E1 cells [1]: 0.18
- Relative in vitro potency (95% confidence limit) NIH 3T3 cells [2]: 0.16

Substance: (desamino[Phe^10]2OGP(10-14)
- Relative in vitro potency (95% confidence limit) MC3T3 E1 cells [1]: 0.18
- Relative in vitro potency (95% confidence limit) NIH 3T3 cells [2]: 0.24

Substance: [Ala^11]OGP(10-14) (YAFGG)
- Relative in vitro potency (95% confidence limit) MC3T3 E1 cells [1]: 0.18
- Relative in vitro potency (95% confidence limit) NIH 3T3 cells [2]: 0.31

Substance: desamino[Phe^10]OGP(10-14) ([Hydrocinnamoyl]GFGG)
- Relative in vitro potency (95% confidence limit) MC3T3 E1 cells [1]: 0.35
- Relative in vitro potency (95% confidence limit) NIH 3T3 cells [2]: 0.48

Substance: desamino[Tyr^10,D-Ala^11]OGP(10-14)
- Relative in vitro potency (95% confidence limit) MC3T3 E1 cells [1]: 0.21
- Relative in vitro potency (95% confidence limit) NIH 3T3 cells [2]: 0.19

Substance: c(Gly-Tyr-Gly-Phe-Gly-Gly) (GYGFGG; cyclic)
- Relative in vitro potency (95% confidence limit) MC3T3 E1 cells [1]: 0.26
- Relative in vitro potency (95% confidence limit) NIH 3T3 cells [2]: 0.20

Substance: desamino Tyr-Gly-NH-CH(CH2C6H5)-CH2-Gly-Gly ([Desaminotyrosyl]GFGG; also: reduced amide bond Phe-Gly (NH-CH(CH2C6H5)-CH2-NH))
- Relative in vitro potency (95% confidence limit) MC3T3 E1 cells [1]: 0.70
- Relative in vitro potency (95% confidence limit) NIH 3T3 cells [2]: 0.88

Substance: desamino[Tyr^10,Ala^13]OGP(10-14) ([Desaminotyrosyl]GFAG)
- Relative in vitro potency (95% confidence limit) MC3T3 E1 cells [1]: 0.27
- Relative in vitro potency (95% confidence limit) NIH 3T3 cells [2]: 0.15

Substance: desamino[Tyr^10]OGP(10-14)—ol ([Desaminotyrosyl]GFGG-ol)
- Relative in vitro potency (95% confidence limit) MC3T3 E1 cells [1]: 0.24
- Relative in vitro potency (95% confidence limit) NIH 3T3 cells [2]: 0.28

Substance: Nα-Ac—OGP(11-14) (Ac-GFGG)
- Relative in vitro potency (95% confidence limit) MC3T3 E1 cells [1]: 0.21
- Relative in vitro potency (95% confidence limit) NIH 3T3 cells [2]: 0.22

Substance: c(Gly-Tyr-Gly-Phe-Gly-Asp)-OH (GYGFGD-OH; lactam (positions not given here); also: cyclic, closure site not given here)
- Relative in vitro potency (95% confidence limit) MC3T3 E1 cells [1]: 0.15
- Relative in vitro potency (95% confidence limit) NIH 3T3 cells [2]: 0.16

Substance: [Ala^10]OGP(10-14) (AGFGG)
- Relative in vitro potency (95% confidence limit) MC3T3 E1 cells [1]: 0.29
- Relative in vitro potency (95% confidence limit) NIH 3T3 cells [2]: 0.17

Substance: [β-Ala^11]OGP(10-14) (Y[βAla]FGG)
- Relative in vitro potency (95% confidence limit) MC3T3 E1 cells [1]: 0.29
- Relative in vitro potency (95% confidence limit) NIH 3T3 cells [2]: 0.17

Substance: desamino[Tyr^10]OGP(10-14)—OMe ([Desaminotyrosyl]GFGG-OMe; SMILES COC(=O)CNC(=O)CNC(=O)[C@H](Cc1ccccc1)NC(=O)CNC(=O)CCc1ccc(O)cc1)
- activity compared to OGP(1-14) ([1]; MC3T3 E1 cells): higher than 50%
- Relative in vitro potency (95% confidence limit) MC3T3 E1 cells [1]: 0.51
- activity compared to OGP(1-14) ([2]; NIH3T3 cells): less than 50%
- Relative in vitro potency (95% confidence limit) NIH 3T3 cells [2]: 0.36

Substance: c(δ-Ala-Tyr-Gly-Phe-Gly-Asp)-OH
- Relative in vitro potency (95% confidence limit) MC3T3 E1 cells [1]: 0.20
- Relative in vitro potency (95% confidence limit) NIH 3T3 cells [2]: 0.11

Substance: desamino Tyr-NH-CH2-CH2-Phe-Gly-Gly ([Desaminotyrosyl]GFGG; also: Gly2-Phe3 bond reduced, ψ(CH2NH))
- Relative in vitro potency (95% confidence limit) MC3T3 E1 cells [1]: 0.61
- Relative in vitro potency (95% confidence limit) NIH 3T3 cells [2]: 0.67

Substance: [D-Ala^13]OGP(10-14)
- Relative in vitro potency (95% confidence limit) MC3T3 E1 cells [1]: 0.14
- Relative in vitro potency (95% confidence limit) NIH 3T3 cells [2]: 0.26

Substance: des[Gly^11]OGP(10-14)
- Relative in vitro potency (95% confidence limit) MC3T3 E1 cells [1]: 0.21
- Relative in vitro potency (95% confidence limit) NIH 3T3 cells [2]: 0.17

Substance: desamino[Tyr^10]OGP(10-13)—NH(CH2)2NH2 ([Desaminotyrosyl]GFG-{NH(CH2)2NH2})
- Relative in vitro potency (95% confidence limit) MC3T3 E1 cells [1]: 0.18
- Relative in vitro potency (95% confidence limit) NIH 3T3 cells [2]: 0.17

Substance: desamino[Tyr^10,Sar^13]OGP(10-14) ([Desaminotyrosyl]GF[Sar]G)
- Relative in vitro potency (95% confidence limit) MC3T3 E1 cells [1]: 0.15
- Relative in vitro potency (95% confidence limit) NIH 3T3 cells [2]: 0.11

Substance: desamino[Tyr^10,Sar^11]OGP(10-14) [desamino[Tyr^10,Sar^11]OGP(10-14) (SEQ ID NO: 34)]
- Relative in vitro potency (95% confidence limit) MC3T3 E1 cells [1]: 0.16
- Relative in vitro potency (95% confidence limit) NIH 3T3 cells [2]: 0.14)

Substance: c(Tyr-Cly-Phe-Gly) (YGFG; cyclic)
- Relative in vitro potency (95% confidence limit) MC3T3 E1 cells [1]: 0.35
- Relative in vitro potency (95% confidence limit) NIH 3T3 cells [2]: 0.43

Substance: c(γ-Abu-Tyr-Gly-Phe-Gly-Gly) (cyclo([GABA]YGFGG); SMILES O=C1CNC(=O)CNC(=O)[C@H](Cc2ccccc2)NC(=O)CNC(=O)[C@H](Cc2ccc(O)cc2)NC(=O)CCCN1)
- Relative in vitro potency (95% confidence limit) MC3T3 E1 cells [1]: 0.20
- Relative in vitro potency (95% confidence limit) NIH 3T3 cells [2]: 0.22

Substance: desamino[Ala^10]OGP(10-14) ([Propionyl]GFGG)
- Relative in vitro potency (95% confidence limit) MC3T3 E1 cells [1]: 0.28
- Relative in vitro potency (95% confidence limit) NIH 3T3 cells [2]: 0.09

Substance: c(δ-Ala-Tyr-Gly-Phe-Gly-Gly)
- Relative in vitro potency (95% confidence limit) MC3T3 E1 cells [1]: 0.14
- Relative in vitro potency (95% confidence limit) NIH 3T3 cells [2]: 0.18

Reference: patent US6479460B1, “Synthetic peptides and pseudopeptides having osteogenic activity and pharmaceutical compositions containing the same” (Yissum Research Development Company of the Hebrew …, priority 1996, dated 2002)
